Patent US20250352500A1, “USE OF PHENOLIC ACIDS DERIVATIVES IN TREATING ISCHEMIC STROKE” (LANZHOU UNIVERSITY, priority 2022, published 2025)

Tests used:
Type in all cases: in vivo, male C57/BL mice
COX2 = assay: RT-qPCR of COX2 mRNA in brain tissue; details: 72 h, three days of administration, compound 2 100 mg/kg, compound 1 50 mg/kg, P<0.001
Method: (§1) Grouping and administration method: Male C57/BL mice weighing 23±1 g were randomly divided into sham operation group (SHAM), model group (MCAO), compound 2 group (100 mg/kg), and compound 1 group (50 mg/kg), with 10 mice in each group. Mice in the SHAM group underwent vascular isolation, but no […] was administered, and no treatment was given before or after surgery. The model group mice were constructed with MCAO models and were not treated before and after surgery. The treatment group was treated with compound 2 or compound 1 on the basis of the model group. Mice with a neurological score of 0 after reperfusion and those that died before 72 hours post-surgery were excluded. […]
(§2) To investigate the effect of compounds on the expression of inflammatory factors after ischemia-reperfusion, this study used immunofluorescence experiments to observe the expression of TNF-α, IL-1β, IL-6, iNOS, and COX2 proteins in brain tissue. […] The concentrations of TNF-α, IL-1β, and IL-6 in brain homogenate were detected by enzyme-linked immunosorbent assay (ELISA), and the expression level of TNF-α protein in brain tissue was detected by Western blot.
(§3) After 72 hours of ischemia-reperfusion, the mRNA expression levels of TNF-α, IL-1β, IL-6, iNOS, and COX2 in brain tissue were detected and analyzed by RT-qPCR. […]

HIF-1α [1] = assay: RT-qPCR of HIF-1α mRNA in brain tissue; details: 72 h; for HIF-1α mRNA expression level reduced compared with MCAO group: three days of administration, compound 2 100 mg/kg, compound 1 50 mg/kg
Method: (§4) Grouping and administration method: Male C57/BL mice weighing 23±1 g were randomly divided into sham operation group (SHAM), model group (MCAO), compound 2 group (100 mg/kg), and compound 1 group (50 mg/kg), with 10 mice in each group. Mice in the SHAM group underwent vascular isolation, but no […] was administered, and no treatment was given before or after surgery. The model group mice were constructed with MCAO models and were not treated before and after surgery. The treatment group was treated with compound 2 or compound 1 on the basis of the model group. Mice with a neurological score of 0 after reperfusion and those that died before 72 hours post-surgery were excluded. The administration time for animal behavior tests was seven times at 0 h, 1 day, 2 days, 3 days, 4 days, 5 days, and 6 days after reperfusion, while the administration time for other experiments was three times at 0 h, 1 day, and 2 days after reperfusion. The drug was administered through the tail vein, and the sham operation group and model group were given equal amounts of saline.
HIF-1α is a sensitive regulator of oxygen homeostasis, rapidly inducing its expression after hypoxia-ischemia. It plays a wide range of roles in the pathophysiology of stroke, including neuronal survival, neuroinflammation, angiogenesis, glucose metabolism, and blood-brain barrier regulation. It can not only produce specific sensations in the case of hypoxia, but also facilitate the maintenance of oxygen homeostasis in the body. […]
After 72 hours of ischemia-reperfusion, the mRNA expression level of HIF-1α in brain tissue was detected and analyzed by RT-qPCR. […] Compared with the compound 1 group, the expression level of HIF-1α in the compound 2 group decreased by 53±11% (P<0.001). n=3, data are presented as mean±SEM, analyzed using one-way ANOVA, and subjected to Tukey's HSD test. *P<0.05, **P<0.01, ***P<0.001. ^#P<0.05, ^##P<0.01, ^###P<0.001. * indicates a comparison with the SHAM group, indicates a comparison with the Compound 2 group.

MCAO model mice [2] = assay: Body weight change after ischemia-reperfusion
Method: as §4
At the same time, the weight change and survival rate of mice after ischemia-reperfusion were analyzed.

TNF-α = assay: RT-qPCR of TNF-α mRNA in brain tissue; details: 72 h, three days of administration, compound 2 100 mg/kg, compound 1 50 mg/kg, P<0.05
Method: as §1, §2, §3

HIF-1α [3] = assay: HIF-1α immunofluorescence in brain tissue; details: 72 h ischemia-reperfusion, three days of administration; compound 2 100 mg/kg, compound 1 50 mg/kg; MCAO group 568±60; mean±SEM, n=3
Method: as §1
After 72 hours of ischemia-reperfusion, the expression changes of the inflammatory factor HIF-1α in the brain region were analyzed by immunofluorescence staining. […] Compared with the compound 1 group, the number of HIF-1α-positive cells in the compound 2 group was lower (197±33 vs 250±54/mm^2, P<0.001). n=3, data are presented as mean±SEM, analyzed using one-way ANOVA, and subjected to Tukey's HSD test. *P<0.05, **P<0.01, ***P<0.001. ^#P<0.05, ^##P<0.01, ^###P<0.001. * indicates a comparison with the MCAO group, ^# indicates comparison with the compound 2 group.

IL-6 = assay: ELISA of IL-6 in brain homogenate; details: 72 h, three days of administration, compound 2 100 mg/kg, compound 1 50 mg/kg
Method: as §1, §2
After 72 hours of ischemia-reperfusion, the expression levels of inflammatory factors TNF-α, IL-1β, and IL-6 in the mouse brain homogenate were detected.

iNOS = assay: RT-qPCR of iNOS mRNA in brain tissue; details: 72 h, three days of administration, compound 2 100 mg/kg, compound 1 50 mg/kg, P<0.05
Method: as §1, §2, §3

MCAO model mice [4] = assay: Rotating rod (balance rod) test of motor coordination after ischemia-reperfusion
Method: as §4
The balance rod test was used to test the motor coordination of mice. The experiment was divided into four groups: sham operation group (SHAM), model group (MCAO), compound 2 group and compound 1 group. The effects of compound 2 on the recovery of behavioral function in mice after ischemia-reperfusion were comprehensively analyzed. The rotating rod test can test the motor coordination ability of mice. The experimental procedure is set to gradually accelerate the speed of the rotating rod from 10 rpm to 40 rpm within 300 seconds. Record the time that the mouse stays on the rotating stick. The mice were trained 3 days in advance. Select mice that can stay on the rotating rod for about 300 seconds for the next experiment. The time that the mice spent on the rotating rod before the model was constructed was selected as the pre-operative test value. The trained mice were subjected to MCA occlusion for 60 minutes and then reperfusion. Mice in the SHAM group, MCAO group, Compound 2 group, and Compound 1 group underwent rotating rod testing on days 1, 3, 5, and 7 post-surgeries, respectively, and the duration of their stay on the rotating rod was recorded.
After reperfusion for 1 to 3 days, the motor coordination ability continued to decline, but gradually recovered after 3 days, but the degree of recovery was extremely low.

[5] = compound 2 100 mg/kg vs compound 1 50 mg/kg, P<0.001

| SMILES | COX2 mRNA expression compared with MCAO group (COX2) | HIF-1α mRNA expression level reduced compared with MCAO group (HIF-1α [1]) [%] | Body weight compared with the compound 2 group (MCAO model mice [2]; 7th day after reperfusion, compound 1 50 mg/kg vs compound 2 100 mg/kg, P<0.05) | TNF-α mRNA expression compared with MCAO group (TNF-α) | Number of HIF-1α-positive cells (HIF-1α [3]) | Decrease in IL-6 expression compared with MCAO group (IL-6) | iNOS mRNA expression compared with MCAO group (iNOS) | Motor coordination ability (time on rotating rod) compared with MCAO group (MCAO model mice [4]; compound 1 50 mg/kg tail vein, time not stated) | HIF-1α mRNA expression level decreased compared with the compound 1 group (HIF-1α [1]; [5]) [%] | Body weight compared with MCAO group (MCAO model mice [2]; 7th day of reperfusion, 100 mg/kg tail vein) | Motor coordination ability (time on rotating rod) compared with model group (MCAO) (MCAO model mice [4]; at 5 and 7 days, compound 2 100 mg/kg tail vein, P<0.05) | Motor coordination (time on rotating rod) compared with model group (MCAO) (MCAO model mice [4]; at 7 days of reperfusion, compound 2 100 mg/kg tail vein, P<0.001) | Motor coordination ability (time on rotating rod) compared with the compound 1 group (MCAO model mice [4]; [5]) |
| --- | --- | --- | --- | --- | --- | --- | --- | --- | --- | --- | --- | --- | --- |
| O=C(O)c1cc(O)ccc1O [compound 1] | significantly reduced | 41±13 | significantly decreased | significantly reduced | 250±54 /mm^2 | reduced to varying degrees | significantly reduced | improved |  |  |  |  |  |
| O=C(O)c1cc(OP(=O)(O)O)ccc1OP(=O)(O)O [compound 2] | significantly reduced | 75±17 |  | significantly reduced | 197±33 /mm^2 | 40±10% | significantly reduced |  | 53±11 | inhibited the decrease in body weight | significantly improved | significantly improved | significantly improved |
